This experiment deals with T1, purified bovine catalase (Bos taurus, UniProt P00432).
T1 sequence (P00432 2-527): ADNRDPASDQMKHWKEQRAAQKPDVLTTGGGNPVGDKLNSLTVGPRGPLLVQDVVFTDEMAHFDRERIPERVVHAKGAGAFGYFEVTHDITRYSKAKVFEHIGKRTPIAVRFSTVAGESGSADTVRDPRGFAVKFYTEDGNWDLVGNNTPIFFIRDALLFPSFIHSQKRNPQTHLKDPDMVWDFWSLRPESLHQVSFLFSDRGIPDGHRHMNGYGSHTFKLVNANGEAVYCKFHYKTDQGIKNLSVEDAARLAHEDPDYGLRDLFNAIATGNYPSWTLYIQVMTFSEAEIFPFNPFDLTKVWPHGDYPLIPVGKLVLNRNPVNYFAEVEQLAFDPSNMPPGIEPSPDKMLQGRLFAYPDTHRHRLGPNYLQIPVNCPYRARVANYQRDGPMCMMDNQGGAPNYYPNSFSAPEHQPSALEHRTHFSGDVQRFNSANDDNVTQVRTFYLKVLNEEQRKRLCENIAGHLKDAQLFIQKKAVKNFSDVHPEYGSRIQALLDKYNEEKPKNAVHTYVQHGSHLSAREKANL
Put plainly: H2O2 breakdown at […] nm, global fit to competitive inhibition model. It counts as biochemical.

The Ki is a measure of affinity in units of concentration, obtained from inhibition or displacement. A higher Ki goes with weaker binding. As to `NC(=O)NO` [Hydroxyurea], the affinity corresponds to a Ki of 230 µM.

For the origin of these results see PMC2898382 (The Journal of Biological Chemistry, 2010).
